Reference: PMC7413254 (Nature Communications, 2020)
Like-named read-outs stand apart in the source and are kept apart here.

Assays:
[1] = tested on: non-expressing oocytes; assay: cells; assay type: cell-based, Xenopus laevis; conditions: Xenopus laevis, total [3H]CQ transport; for inhibition at 500 µM: [test solute] = 0.5 mM; for inhibition at 1000 µM: [test solute] = 1 mM; for inhibition at 2000 µM: [test solute] = 2 mM
Summary of the method: (§1)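 Washed oocytes (ten per treatment) were exposed to label in pH 5.5 ND96 for 1.5 h at 27.5 °C. Buffer was then removed, cells rinsed in ice-cold ND96, lysed in SDS and counted.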

[2] = molecular target: T1, PfCRT^3D7 (Plasmodium falciparum, UniProt Q8IBZ9); assay: cell-based; assay type: cell-based; conditions: total [3H]CQ transport; for inhibition at 500 µM: [test solute] = 0.5 mM; for inhibition at 1000 µM: [test solute] = 1 mM; for inhibition at 2000 µM: [test solute] = 2 mM
Summary of the method: as §1

[3] = molecular target: T2, PfCRT^Dd2 (Plasmodium falciparum, UniProt Q9N623, A220S/I356T/K76T/M74I/N326S/N75E/Q271E/R371I); assay: [3H]CQ uptake into Xenopus oocytes, cis-inhibition by unlabelled solute; assay type: cell-based
Summary of the method: as §1

[4] = molecular target: T3, PfCRT^Ecu1110 (Plasmodium falciparum, UniProt Q9N623, A220S/I356L/K76T/N326D); assay: as above; assay type: cell-based
Summary of the method: as §1

[5] = tested on: non-expressing oocytes; assay type: cell-based, Xenopus laevis; conditions: total [3H]CQ transport; for Uptake of [3H]CQ (% non-expressing oocyte control), trans-stimulation: non-expressing oocytes, normalised to the oocyte type control; for Uptake of [3H]CQ (% PfCRTDd2 control), trans-stimulation, non-expressing oocytes: mean ± SEM, SEM
Summary of the method: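 Oocytes (ten per treatment, ≥4 independent frogs/days) were preloaded by injecting VF-6 in 25 nL ND96 at pH 5.0, 5.5, 6.0 or 7.0, or Na^+-free choline buffer, then uptake run 1.5 h, 27.5 °C, ND96 pH 5.5 by default. Internal concentrations assumed ~400 nL oocyte volume.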

[6] = molecular target: T1, PfCRT^3D7; assay: cell-based; assay type: cell-based
Summary of the method: (§2)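 Transport measured in Xenopus oocytes expressing the transporters, 1.5 h at 27.5 °C in ND96 pH 5.5 unless noted. For trans-stimulation, VF-6 injected in 25 nL ND96 at pH 5.0–7.0 or Na^+-free (choline) buffer; intracellular levels based on ~400 nL oocyte volume. Ten oocytes per treatment, ≥4 experiments.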

[7] = molecular target: T2, PfCRT^Dd2; assay: cell-based; assay type: cell-based; conditions: […]; for activity at 45000 µM: [test solute]i = 45 mM (30 mM for some solutes due to solubility)
Summary of the method: as §2

[8] = molecular target: T3, PfCRT^Ecu1110; assay: cell-based; assay type: cell-based; conditions: […]
Summary of the method: as §2

[9] = molecular target: T4, PfNT1 (Plasmodium falciparum, UniProt Q8IDM6); assay: cell-based; assay type: cell-based; conditions: for activity at 5000 µM: total [3H]CQ transport
T4 construct: expressed in transfected cells; host or cells: Xenopus laevis oocytes (stage V-VI), cRNA-injected
Summary of the method: as §2

[10] = tested on: PfCRT; assay: Influx of VF-6 via PfCRT into the oocyte, solutes tested as potential co-substrates; assay type: cell-based, Plasmodium falciparum; set-up: key: X: Compounds that have been tested as potential co-substrates but are not required for influx of VF-6 via PfCRT into the oocyte; conditions: X marks the solute
[11] = tested on: PfCRT; assay: Potential co-substrates tested for influx of VF-6 via PfCRT into the oocyte; assay type: cell-based, Plasmodium falciparum; set-up: key: X: Compounds that have been tested as potential co-substrates but are not required for influx of VF-6 via PfCRT into the oocyte
[12] = Oocyte, mean ± SEM, SEM, read-out: Uptake of [3H]CQ (% PfCRTDd2 control), cis-inhibition, non-expressing oocytes
[13] = non-expressing oocytes, normalised to the oocyte type control, read-out: Uptake of [3H]CQ (% non-expressing oocyte control), cis-inhibition
[14] = PfCRT3D7 oocytes, normalised to the oocyte type control, read-out: Uptake of [3H]CQ (% PfCRT3D7 control), cis-inhibition
[15] = mean ± SEM, SEM, read-out: Uptake of [3H]CQ (% PfCRTDd2 control), cis-inhibition, PfCRT3D7
[16] = read-out: PfCRT-mediated [3H]CQ transport, cis-inhibition (% PfCRTDd2 control)
[17] = read-out: Uptake of [3H]CQ (% PfCRTDd2 control), cis-inhibition
[18] = read-out: Uptake of [3H]CQ (% PfCRTDd2 control), cis-inhibition, PfCRTDd2, SEM
[19] = read-out: [3H]CQ transport (% PfCRTDd2 control), cis-inhibition, PfCRTDd2, SEM
[20] = read-out: PfCRT-mediated [3H]CQ transport, cis-inhibition (% PfCRTEcu1110 control)
[21] = read-out: Uptake of [3H]CQ (% PfCRTDd2 control), cis-inhibition, PfCRTEcu1110, SEM
[22] = read-out: Uptake of [3H]CQ (% PfCRTEcu1110 control), cis-inhibition
[23] = read-out: [3H]CQ transport (% PfCRTEcu1110 control), cis-inhibition, PfCRTEcu1110, SEM

T2 sequence (Q9N623 whole entry A220S/I356T/K76T/M74I/N326S/N75E/Q271E/R371I): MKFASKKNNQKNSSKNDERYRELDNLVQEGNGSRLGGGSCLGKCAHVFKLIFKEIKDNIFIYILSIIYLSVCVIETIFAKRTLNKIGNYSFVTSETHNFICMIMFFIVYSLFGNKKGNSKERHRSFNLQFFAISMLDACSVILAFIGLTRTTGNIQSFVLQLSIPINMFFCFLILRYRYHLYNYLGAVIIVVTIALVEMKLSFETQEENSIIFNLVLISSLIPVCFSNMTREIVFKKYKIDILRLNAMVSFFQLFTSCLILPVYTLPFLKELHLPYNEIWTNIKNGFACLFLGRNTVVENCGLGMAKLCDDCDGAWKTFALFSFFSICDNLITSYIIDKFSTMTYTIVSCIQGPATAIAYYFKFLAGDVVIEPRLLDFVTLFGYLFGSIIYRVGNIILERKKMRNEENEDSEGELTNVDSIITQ
T3 sequence (Q9N623 whole entry A220S/I356L/K76T/N326D): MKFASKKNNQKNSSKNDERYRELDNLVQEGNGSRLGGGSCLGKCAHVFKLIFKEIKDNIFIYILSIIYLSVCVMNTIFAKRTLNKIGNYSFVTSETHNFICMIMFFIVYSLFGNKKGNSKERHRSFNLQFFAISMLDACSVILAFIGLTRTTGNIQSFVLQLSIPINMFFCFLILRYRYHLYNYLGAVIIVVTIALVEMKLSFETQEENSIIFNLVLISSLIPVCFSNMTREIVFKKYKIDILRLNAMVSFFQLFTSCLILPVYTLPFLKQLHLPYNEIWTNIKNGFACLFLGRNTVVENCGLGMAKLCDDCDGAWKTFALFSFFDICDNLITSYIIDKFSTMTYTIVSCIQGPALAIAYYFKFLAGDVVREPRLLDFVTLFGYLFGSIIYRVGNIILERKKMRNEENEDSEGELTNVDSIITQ
T1 sequence (Q8IBZ9 59-398): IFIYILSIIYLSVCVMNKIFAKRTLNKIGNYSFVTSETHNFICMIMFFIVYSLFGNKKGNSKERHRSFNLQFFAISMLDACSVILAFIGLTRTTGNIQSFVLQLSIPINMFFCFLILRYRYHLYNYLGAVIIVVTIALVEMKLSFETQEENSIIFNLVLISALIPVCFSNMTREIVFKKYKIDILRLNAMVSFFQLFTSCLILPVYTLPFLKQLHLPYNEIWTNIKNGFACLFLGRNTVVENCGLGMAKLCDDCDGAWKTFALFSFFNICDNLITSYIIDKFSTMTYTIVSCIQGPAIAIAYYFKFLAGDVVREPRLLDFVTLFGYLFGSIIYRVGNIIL
T4 sequence (Q8IDM6 whole entry): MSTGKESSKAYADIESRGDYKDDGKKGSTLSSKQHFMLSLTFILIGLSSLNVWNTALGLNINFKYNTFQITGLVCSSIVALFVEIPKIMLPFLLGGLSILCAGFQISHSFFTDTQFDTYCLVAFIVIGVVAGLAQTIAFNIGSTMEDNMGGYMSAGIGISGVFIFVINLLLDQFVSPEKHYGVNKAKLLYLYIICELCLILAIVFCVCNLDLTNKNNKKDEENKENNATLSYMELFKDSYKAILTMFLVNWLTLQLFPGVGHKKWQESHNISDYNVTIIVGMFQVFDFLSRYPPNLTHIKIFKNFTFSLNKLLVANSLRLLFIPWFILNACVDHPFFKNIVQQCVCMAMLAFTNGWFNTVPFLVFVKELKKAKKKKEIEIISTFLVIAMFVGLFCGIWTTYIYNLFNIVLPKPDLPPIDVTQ

## CC(C)[C@H](N)C(=O)O [L-valine]
[1]; [12]
  inhibition at 500 µM: 2.7 ± 0.05%
  inhibition at 1000 µM: 2.5 ± 0.04%
  inhibition at 2000 µM: 2.8 ± 0.07%
[1]; [13]
  inhibition at 500 µM: 100 ± 4.8%
  inhibition at 1000 µM: 101 ± 6.2%
  inhibition at 2000 µM: 99 ± 6.2%
[2]; [14]
  inhibition at 500 µM: 99 ± 3.6%
  inhibition at 1000 µM: 99 ± 3.9%
  inhibition at 2000 µM: 100 ± 5.5%
[2]; [15]
  inhibition at 500 µM: 3.1 ± 0.07%
  inhibition at 1000 µM: 3.4 ± 0.01%
  inhibition at 2000 µM: 3.4 ± 0.04%
[3]; [16]
  inhibition at 500 µM: 98 ± 3.6%
  inhibition at 1000 µM: 98 ± 4.6%
  inhibition at 2000 µM: 93 ± 4.1%
[3]; [17]
  inhibition at 500 µM: 100 ± 2.6%
  inhibition at 1000 µM: 100 ± 2.2%
[3]; [18]
  inhibition at 500 µM: 100 ± 2.6%
  inhibition at 1000 µM: 100 ± 2.2%
  inhibition at 2000 µM: 95 ± 1.4%
[3]; [19]
  inhibition at 500 µM: 98 ± 3.6%
  inhibition at 1000 µM: 98 ± 4.6%
[4]; [20]
  inhibition at 500 µM: 98 ± 2.5%
  inhibition at 1000 µM: 95 ± 2.6%
  inhibition at 2000 µM: 94 ± 2.5%
[4]; [21]
  inhibition at 500 µM: 33 ± 1%
  inhibition at 1000 µM: 32 ± 1.3%
  inhibition at 2000 µM: 31 ± 1.6%
[4]; [22]
  inhibition at 500 µM: 100 ± 1.5%
  inhibition at 1000 µM: 97 ± 1.7%
  inhibition at 2000 µM: 96 ± 1.5%
[4]; [23]
  inhibition at 500 µM: 30 ± 0.6%
  inhibition at 1000 µM: 29 ± 1.4%
  inhibition at 2000 µM: 28 ± 0.4%
[5]; [test solute]i = 5 mM
  Uptake of [3H]CQ (% non-expressing oocyte control), trans-stimulation: 99 ± 4.1 % non-expressing oocyte control
[5]; [test solute]i = 45 mM (30 mM for some solutes due to solubility)
  Uptake of [3H]CQ (% non-expressing oocyte control), trans-stimulation: 100 ± 2.6 % non-expressing oocyte control
[5]; [test solute]i = 5 mM (intracellular)
  Uptake of [3H]CQ (% PfCRTDd2 control), trans-stimulation, non-expressing oocytes: 2.6 ± 0.08 % PfCRTDd2 control
[5]; [test solute]i = 45 mM (intracellular; 30 mM for some solutes due to solubility)
  Uptake of [3H]CQ (% PfCRTDd2 control), trans-stimulation, non-expressing oocytes: 2.7 ± 0.03 % PfCRTDd2 control
[6]; PfCRT3D7 oocytes, [test solute]i = 5 mM, total [3H]CQ transport, normalised to the oocyte type control, read-out: Uptake of [3H]CQ (% PfCRT3D7 control), trans-stimulation
  activity at 5000 µM: 98 ± 4.2%
[6]; SEM
  [3H]CQ transport (% PfCRT3D7 control), trans-stimulation, PfCRT3D7: 0.3 ± 0.01 % PfCRT3D7 control
[6]; [test solute]i = 5 mM (intracellular), PfCRT3D7 oocytes, normalised to oocyte type control, read-out: PfCRT-mediated [3H]CQ transport, trans-stimulation (% PfCRT3D7 control)
  activity at 5000 µM: 96 ± 3.3%
[6]; SEM, read-out: Uptake of [3H]CQ (% PfCRTDd2 control), trans-stimulation, PfCRT3D7
  activity at 45000 µM: 3.3 ± 0.01%
[6]; read-out: PfCRT-mediated [3H]CQ transport, trans-stimulation (% PfCRT3D7 control)
  activity at 45000 µM: 96 ± 2.4%
[6]; read-out: Uptake of [3H]CQ (% PfCRT3D7 control), trans-stimulation
  activity at 45000 µM: 98 ± 3.7%
[6]; total [3H]CQ transport, [test solute]i = 5 mM (intracellular), mean ± SEM, SEM, read-out: Uptake of [3H]CQ (% PfCRTDd2 control), trans-stimulation, PfCRT3D7
  activity at 5000 µM: 3.3 ± 0.05%
[7]; pH 5.5, read-out: PfCRT-mediated [3H]CQ transport, trans-stimulation (% PfCRTDd2 control), [test solute]i = 5 mM (intracellular), PfCRTDd2 oocytes, normalised to oocyte type control
  activity at 5000 µM: 97 ± 4.2%
[7]; pH 5.5, read-out: Uptake of [3H]CQ (% PfCRTDd2 control), trans-stimulation, PfCRTDd2, total [3H]CQ transport, [test solute]i = 5 mM (intracellular), mean ± SEM, SEM
  activity at 5000 µM: 99 ± 3.2%
[7]; pH 5.5, read-out: Uptake of [3H]CQ (% PfCRTDd2 control), trans-stimulation, PfCRTDd2 oocytes, [test solute]i = 5 mM, total [3H]CQ transport, normalised to the oocyte type control
  activity at 5000 µM: 99 ± 3.2%
[7]; pH 5.5, read-out: Uptake of [3H]CQ (% PfCRTDd2 control), trans-stimulation, PfCRTDd2 oocytes, total [3H]CQ transport, normalised to the oocyte type control
  activity at 45000 µM: 97 ± 1.1%
[7]; pH 5.5, read-out: [3H]CQ transport (% PfCRTDd2 control), trans-stimulation, PfCRTDd2, trans-stimulation, [test solute]i = 5 mM (injected), PfCRT-mediated component (background subtracted), mean ± SEM, SEM
  activity at 5000 µM: 97 ± 4.2%
[7]; pH 5.5, read-out: [3H]CQ transport (% PfCRTDd2 control), trans-stimulation, PfCRTDd2, trans-stimulation, PfCRT-mediated component (background subtracted), mean ± SEM, SEM
  activity at 45000 µM: 95 ± 2.5%
[8]; pH 5.5, read-out: PfCRT-mediated [3H]CQ transport, trans-stimulation (% PfCRTEcu1110 control), [test solute]i = 5 mM (intracellular), PfCRTEcu1110 oocytes, normalised to oocyte type control
  activity at 5000 µM: 96 ± 3.3%
[8]; pH 5.5, read-out: Uptake of [3H]CQ (% PfCRTEcu1110 control), trans-stimulation, PfCRTEcu1110 oocytes, [test solute]i = 5 mM, total [3H]CQ transport, normalised to the oocyte type control
  activity at 5000 µM: 98 ± 3.6%
[8]; pH 5.5, read-out: Uptake of [3H]CQ (% PfCRTEcu1110 control), trans-stimulation, PfCRTEcu1110 oocytes, [test solute]i = 45 mM (30 mM for some solutes due to solubility), total [3H]CQ transport, normalised to the oocyte type control
  activity at 45000 µM: 100 ± 2.5%
[8]; read-out: Uptake of [3H]CQ (% PfCRTDd2 control), trans-stimulation, PfCRTEcu1110, total [3H]CQ transport, [test solute]i = 5 mM (intracellular), mean ± SEM, SEM
  activity at 5000 µM: 35 ± 1.6%
[8]; read-out: Uptake of [3H]CQ (% PfCRTDd2 control), trans-stimulation, PfCRTEcu1110, total [3H]CQ transport, [test solute]i = 45 mM (intracellular; 30 mM for some solutes due to solubility), mean ± SEM, SEM
  activity at 45000 µM: 36 ± 1.4%
[9]; PfNT1 oocytes, [test solute]i = 5 mM, normalised to the oocyte type control, read-out: Uptake of [3H]CQ (% PfNT1 control), trans-stimulation
  activity at 5000 µM: 99 ± 2.9%
[9]; SEM, read-out: Uptake of [3H]CQ (% PfCRTDd2 control), trans-stimulation, PfNT1
  activity at 45000 µM: 2.9 ± 0.04%
[9]; read-out: Uptake of [3H]CQ (% PfNT1 control), trans-stimulation
  activity at 45000 µM: 100 ± 3.2%
[9]; [test solute]i = 5 mM (intracellular), mean ± SEM, SEM, read-out: Uptake of [3H]CQ (% PfCRTDd2 control), trans-stimulation, PfNT1
  activity at 5000 µM: 2.7 ± 0.01%
[10]
  Compounds that have been tested as potential co-substrates but are not required for influx of VF-6 via PfCRT into the oocyte: X
[11]
  Tested as potential co-substrate but not required for influx of VF-6 via PfCRT into the oocyte: X
